Holding throughout (assay): inhibition of tumour cell growth, NCI panel, 48 h
For experiment [1], the system named is KM12 colon.
Experiment [2] deals with MDA-N.
For experiment [3], the system named is OVCAR-4 ovarian.
Experiment [4] deals with OVCAR-5 ovarian.
The test system of experiment [5] is BT-549 breast.
Experiment [6] relates to NCI-H23 lung.
Experiment [7] has as its system UO-31 renal.
In experiment [8] the test system is U251 CNS.
Experiment [9] concerns NCI-H460 lung.
Experiment [10] concerns HCC-2998 colon.

Where “and” joins values, the source holds several entries; their conditions need not be identical. Equal values may be shown once.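 1) Cells in 96-well plates. 2) Compound, 48 h, 5 concentrations. 3) Linear interpolation between surrounding doses. 4) Unreached endpoint = highest concentration. At the GI50, growth is halved. TGI: total growth inhibition.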

For `N/N=C1/C2CN3CCN(C2)CC1(c1ccc([N+](=O)[O-])cc1)C3`, the TGI in experiment [1], in [2], in experiment [3], in [4], in experiment [5] and in experiment [6] was above 100 µM throughout. Further, the TGI in [7] and in [8] was above 100 µM throughout.
For the compound `Clc1ccc(N2N=C(c3cccc(Nc4ccncc4)c3)CC2c2ccc3c(c2)OCO3)cc1` (stereo unspecified), the GI50 in experiment [1] is 1.67 µM; in experiment [3], 1.69 µM; in [9] it was 1.77 µM; in [4] it was 2.11 µM; in experiment [10], 1.79 µM; in [5], 4.92 µM. In addition, the GI50 in experiment [6] was 1.74 µM; in experiment [7], 1.36 µM. The TGI was 3.18 µM in experiment [1]; 3.25 µM in experiment [3]; 3.29 µM in experiment [9]; 5.69 µM in [4]; 3.2 µM in [10]; 28.6 µM in experiment [5]. In addition, the figures for the TGI in [6] and in experiment [7] were 3.37 µM and 2.86 µM, respectively.
As to `[Cl][Pt+2][Cl].[NH-]C1CCCCC1[NH-]` (stereo unspecified), the GI50 was 80.6 µM and > 72.1 µM and 10.6 µM in experiment [1]; 14.5 µM and 9.24 µM and 2.19 µM in experiment [3]; 1.94 µM and 0.903 µM and 0.287 µM in experiment [9]; 42.6 µM and 17.2 µM and 4.67 µM in experiment [10]; 7.21 µM and 3.26 µM and 1.07 µM in [6]; 21 µM and 9.15 µM and 13.2 µM in experiment [8]. Further, the TGI is above 100 µM in experiment [1]; 64.2 µM and 90.5 µM and 47.1 µM in experiment [3]; 17.9 µM and 36.1 µM and 14 µM in experiment [9]; 78.4 µM and > 100 µM and 14.3 µM in [4]; > 100 µM and 24.2 µM in experiment [10]; > 58.2 µM and > 100 µM and 17.5 µM in [6]. The TGI in experiment [7] and in experiment [8] was above 100 µM in each case.
Turning to `OCC1OC(n2cnc3cncnc32)C(O)C1O` (stereo unspecified), the TGI was 6 µM in experiment [1]; 2.63 µM in [3]; 1.49 µM in [9]; 4.02 µM in experiment [4]; 2.84 µM in experiment [10]; 3.68 µM in experiment [6]. Moreover, the TGI is 6.84 µM in experiment [7] and 4.58 µM in experiment [8].
Consider `CCNc1ccc2c(c1)Cc1ccccc1-2`, for which the TGI is above 100 µM in [1]; above 100 µM in experiment [3]; above 100 µM in [9]; above 100 µM in experiment [4]; above 100 µM in experiment [10]; 75.5 µM in [5]. The TGI in experiment [6], in [7] and in [8] was above 100 µM each time.
Take `Nc1ncnc2c1ncn2C1CCC(COS(N)(=O)=O)C1` (stereo unspecified): the TGI in experiment [1], in experiment [2], in experiment [3], in [9], in experiment [4] and in [10] was above 100 µM in each case. The TGI in [6], in experiment [7] and in experiment [8] was above 100 µM each time.
Take `Cc1ccccc1-n1c(C)nc2c1C(=O)c1ccccc1C2=O`: the TGI in experiment [1], in [3], in experiment [9], in [4], in experiment [10] and in experiment [6] was above 100 µM in each case. For the same compound, the TGI in experiment [7] and in experiment [8] was above 100 µM each time.
As to `COc1cc2c(cc1OCCCC(=O)Nc1cc(C(=O)Nc3cc(C(=O)Nc4cc(C(=O)NCCCN(C)C)n(C)n4)n(C)n3)n(C)n1)N=CC1CCCN1C2=O` (stereo unspecified), the TGI in experiment [1] is 47 µM; in experiment [3], 35.7 µM; in [9] it was above 100 µM; in experiment [4], 72.2 µM; in [10], 93.5 µM; in experiment [5] it was 37.5 µM. Also, the TGI in [6] is 66.5 µM; in experiment [7] it was 16.6 µM; in experiment [8], above 100 µM.
As to `Cc1ccc(C(C)(C)C[P+](C)(c2ccccc2)c2ccccc2)cc1`, the TGI was above 45.7 µM in experiment [1]; 63.7 µM in [3]; above 100 µM in [9]; above 100 µM in [4]; above 70.3 µM in experiment [10]; above 58.7 µM in experiment [6]. Also, the TGI in experiment [7] was above 85 µM; in experiment [8], above 100 µM.
On to `Cc1ccc(C2=NOC(=O)[C@@H]3CCCC[C@@H]23)cc1`, for which the TGI in [1], in [2], in experiment [3], in experiment [4], in experiment [10] and in experiment [5] was above 100 µM each time. For the same compound, the TGI in experiment [6], in experiment [7] and in experiment [8] was above 100 µM each time.
Take `COc1cc2nc(-c3ccc4ccccc4c3)[nH]c(=O)c2cc1OC`: the TGI in experiment [1], in experiment [2], in [3], in [9], in experiment [4] and in [10] was above 100 µM each time. The TGI in experiment [5], in experiment [6] and in [7] was above 100 µM in each case.
On to `Cc1cccc2c1[nH]c1[nH]c(=O)[nH]c(=O)c12`, for which the TGI in experiment [1], in experiment [2], in experiment [3], in experiment [4], in [5] and in [6] was above 100 µM throughout. Further, in [7], the TGI was above 100 µM.
As to `CC1OC2=N[C@@H]1C(=O)N[C@@H](C(C)C)C1=N[C@H](C(=O)N[C@@H](C(C)C)C3=N[C@H](C(=O)N[C@@H](C(C)C)C4=N[C@H](C(=O)N[C@H]2C(C)C)C(C)O4)C(C)O3)C(C)O1` (stereo partly specified), the TGI in experiment [1], in experiment [2], in experiment [3], in experiment [9], in experiment [4] and in experiment [10] was above 10 µM in each case. For the same compound, the TGI in experiment [6], in experiment [7] and in [8] was above 10 µM throughout.
Turning to `O=C(NCc1cccc(C(F)(F)F)c1)c1cc2sccc2nc1C(F)(F)F`, the TGI in experiment [1], in experiment [2], in [3], in experiment [4], in experiment [5] and in [6] was above 100 µM in each case. Also, the TGI in [7] and in experiment [8] was above 100 µM in each case.

The values are drawn from PubChem BioAssay (NCI).
